Values of other authors as cited in US20170101350A1, “SYNTHETIC ACID COMPOSITIONS AND USES THEREOF” (priority 2014, published 2017).

Settings: death in 2-3 minutes

Cl [hydrogen chloride gas, hydrogen chloride]
levels at which death can occur: 1300-2000 ppm
